Laboratory results: publication PMC9811213, “Glutamine deamidation does not increase the immunogenicity of C-peptide in people with type 1 diabetes” (Journal of Translational Autoimmunity, 2022)

What was measured:
[1] = tested on: CD4+ T cells in PBMC from people with recent onset T1D; assay: CFSE-based proliferation assay, PBMC of people with T1D; type: cell-based, human; settings: peptide 10 μM; for Cell division index (CDI): CFSE-labelled PBMC
Experimental: (§1) Blood was obtained by venepuncture. Peripheral blood mononuclear cells (PBMC) were isolated over Ficoll-paque (GE Healthcare) and washed twice in phosphate buffered saline (PBS) as described. The CFSE (5,6-carboxyfluorescein diacetate succinimidyl ester) proliferation assays were performed as described previously. CFSE-labelled PBMC were cultured with either: no antigen, full-length C-peptide (^PI33-63), or ^PI33-63 Q38E (referred to as Q6E), ^PI33-63 Q41E (referred to as Q9E), ^PI33-63 Q54E, (referred to as Q22E) ^PI33-63 Q63E (referred to as Q31E), or ^PI33-63 with all glutamines substituted for glutamic acid, (referred to as QallE). See Supplementary Table 5 for a detailed description of the peptides. Each peptide was used at a final concentration of 10 μM. Positive controls were tetanus toxoid (TT 10LfU/ml, Statens Serum Institut) and/or anti-CD3 (OKT3 10 ng/ml). The results are presented as a cell division index (CDI), the ratio of the number of CD4^+ T cells that have proliferated in the presence of antigen to the number of CD4^+ T cells that have proliferated in the absence of antigen.
(§2) Our analysis of CD4^+ Jurkat lines expressing TCRs derived from primary CD4^+ T cells used TCRs derived from CD4^+ T cells that were selected for their specificity for WT C-peptide. […] This may be due to Q to E substitutions being poorly tolerated by the TCRs that were selected based on their recognition of WT C-peptide. To address this, we measured polyclonal CD4^+ T-cell responses in PBMC from people with recent onset type 1 diabetes. (see Supplementary Tables 5 and 6 for details of each subject). […] Next, in a separate cohort we investigated CD4^+ T-cell responses to the five C-peptide variants with individual Q to E substitutions in PBMC of people with recent onset type 1 diabetes (Fig. 3B). We found, as expected, that a majority of PBMC samples responded to WT C-peptide, but responses to Q to E substituted C-peptide variants were not stronger, in fact in most cases they were weaker, than responses to WT C-peptide. (See Supplementary Tables 7–9 for results from individual subjects). Finally, we asked if people without T1D, but who carried the T1D-associated HLA alleles, HLA-DQ2, or HLA-DQ8 had stronger responses to Q to E substituted C-peptide variants (Fig. 3C). Here few subjects had response to WT C-peptide and only a minority had greater responses to Q to E substituted variants of C-peptide, compared to WT C-peptide.
(§3) Fig. 3 PBMC responses to WT and deamidated C-peptide variants. (A) Proliferation in responses, measured as a cell division index (CDI) to WT or QallE C-peptide were compared in 8 PBMC from 8 people with recent onset T1D. Responses from the same individual are linked. […] (B) PBMC proliferation responses to WT and C-peptide variants with individual Q to E substitution and QallE from people with recent onset T1D (B) and HLA matched control subjects who don't have T1D (C). Only difference which reached statistical significance are marked (* = P < 0.05). For responses in subjects without T1D, none of the differences between groups reached statistical significance, p > 0.05, by Wilcoxon matched pairs signed rank test of Log 10 transformed CDI data. Each point is a different individual, bars show the mean and the standard deviation for each group.

[2] = tested on: CD4+ T cells in PBMC from subjects without T1D; assay: CFSE-based proliferation assay, PBMC of subjects without T1D; type: cell-based, human; settings: CFSE-labelled PBMC, peptide 10 μM, mean CDI
Experimental: as §1, §2, §3

EAEDLEVGEVELGGGPGAGSLEPLALEGSLE [QallE, C-peptide with all four glutamines substituted for glutamic acid]
CD4+ T-cell proliferation response compared with WT C-peptide ([1]; PBMC from 8 people with recent onset T1D, Fig. 3A, difference not statistically significant): slightly weaker response
Cell division index (CDI) ([1]; T1D donor 1, mean CDI = proliferated CD4+ T cells with antigen / without antigen): 3.5
Cell division index (CDI) ([1]; T1D donor 2, mean CDI): 8.6
Cell division index (CDI) ([1]; T1D donor 3, mean CDI): 2.1
Cell division index (CDI) ([1]; T1D donor 4, mean CDI): 2.9
Cell division index (CDI) ([1]; T1D donor 5, mean CDI): 4.8
Cell division index (CDI) ([1]; T1D donor 6, mean CDI): 1.5
Cell division index (CDI) ([1]; T1D donor 7, mean CDI): 2.5
Cell division index (CDI) ([1]; T1D donor 8, mean CDI): 15.9
Cell division index (CDI) ([1]; T1D donor 9, mean CDI): 0.3
Cell division index (CDI) ([1]; T1D donor 10, mean CDI): 1.0
Cell division index (CDI) ([1]; T1D donor 11, mean CDI): 1.0
Cell division index (CDI) ([1]; T1D donor 12, mean CDI): 1.4
Cell division index (CDI) ([1]; T1D donor 13, mean CDI): 24.7
Cell division index (CDI) ([1]; T1D donor 14, mean CDI): 15.1
Cell division index (CDI) ([1]; T1D donor 15, mean CDI): 21.3
Cell division index (CDI) ([1]; T1D donor 16, mean CDI): 0.7
Cell division index (CDI) ([1]; T1D donor 17, mean CDI): 2.0
Cell division index (CDI) ([1]; T1D donor 18, mean CDI): 1.5
Cell division index (CDI) ([2]; donor 1 without T1D): 15.8
Cell division index (CDI) ([2]; donor 2 without T1D): 1.2
Cell division index (CDI) ([2]; donor 3 without T1D): 0.9
Cell division index (CDI) ([2]; donor 4 without T1D): 1.3
Cell division index (CDI) ([2]; donor 5 without T1D): 1.7
Cell division index (CDI) ([2]; donor 6 without T1D): 7.8

EAEDLQVGEVELGGGPGAGSLQPLALEGSLQ [Q9E, C-peptide variant with glutamine 9 substituted for glutamic acid]
Cell division index (CDI) ([1]; T1D donor 9, mean CDI): 3.9
Cell division index (CDI) ([1]; T1D donor 10, mean CDI): 1.3
Cell division index (CDI) ([1]; T1D donor 11, mean CDI): 0.8
Cell division index (CDI) ([1]; T1D donor 12, mean CDI): 8.0
Cell division index (CDI) ([1]; T1D donor 13, mean CDI): 38.4
Cell division index (CDI) ([1]; T1D donor 14, mean CDI): 11.1
Cell division index (CDI) ([1]; T1D donor 15, mean CDI): 5.1
Cell division index (CDI) ([1]; T1D donor 16, mean CDI): 3.7
Cell division index (CDI) ([1]; T1D donor 17, mean CDI): 11.3
Cell division index (CDI) ([1]; T1D donor 18, mean CDI): 3.4
Cell division index (CDI) ([2]; donor 1 without T1D): 1.0
Cell division index (CDI) ([2]; donor 2 without T1D): 1.4
Cell division index (CDI) ([2]; donor 3 without T1D): 1.2
Cell division index (CDI) ([2]; donor 4 without T1D): 0.8
Cell division index (CDI) ([2]; donor 5 without T1D): 6.1
Cell division index (CDI) ([2]; donor 6 without T1D): 3.4

EAEDLQVGQVELGGGPGAGSLQPLALEGSLE [Q31E, C-peptide variant with glutamine 31 substituted for glutamic acid]
Cell division index (CDI) ([1]; T1D donor 9, mean CDI): 0.3
Cell division index (CDI) ([1]; T1D donor 10, mean CDI): 2.0
Cell division index (CDI) ([1]; T1D donor 11, mean CDI): 0.9
Cell division index (CDI) ([1]; T1D donor 12, mean CDI): 3.7
Cell division index (CDI) ([1]; T1D donor 13, mean CDI): 11.8
Cell division index (CDI) ([1]; T1D donor 14, mean CDI): 3.6
Cell division index (CDI) ([1]; T1D donor 15, mean CDI): 6.4
Cell division index (CDI) ([1]; T1D donor 16, mean CDI): 1.5
Cell division index (CDI) ([1]; T1D donor 17, mean CDI): 7.6
Cell division index (CDI) ([1]; T1D donor 18, mean CDI): 1.0
Cell division index (CDI) ([2]; donor 1 without T1D): 1.3
Cell division index (CDI) ([2]; donor 2 without T1D): 1.7
Cell division index (CDI) ([2]; donor 3 without T1D): 3.6
Cell division index (CDI) ([2]; donor 4 without T1D): 0.8
Cell division index (CDI) ([2]; donor 5 without T1D): 22.3
Cell division index (CDI) ([2]; donor 6 without T1D): 1.9
